Test results published in US20250388571A1, “AMP-ACTIVATED PROTEIN KINASE MODULATOR COMPOUNDS AND USES THEREOF” (Biolexis Therapeutics, Inc., priority 2024, published 2025).
“Also recorded” adds a separate entry of the source. Read-outs that look alike come from different tables or passages of the source.

Tests used:
[1] = system: AMPK signal pathway in C2C12 cells; experiment: Western blot assay, C2C12 cells
Experimental: (§1) Samples for immunoblotting studies were prepared for electrophoresis by adding in a final concentration of 1× Laemmli loading buffer (supplemented with 5% 2-mercaptoethanol). Samples were then electrophorized by SDS-PAGE (4-15% or 4-20% Criterion TGX Precast gel, Bio-Rad) at a constant voltage within the range of 140V. Proteins were transferred to a nitrocellulose membrane (Bio-Rad) using the Trans-Blot Turbo transfer system (Bio-Rad). Membranes were blocked with 5% BSA in TBST for a minimum of 1 hour at room temperature before incubating with the following primary antibodies: • Phospho-AMPKα (Thr172) (40H9) Rabbit mAb (CST, cat no: 2535S), • AMPKα Antibody (CST, cat no: 2532S) • Phospho-Raptor (Ser792) Antibody (CST, cat no: 2083S) • Raptor (24C12) Rabbit mAb (CST, cat no: 2280S) • Phospho-Acetyl-CoA Carboxylase (Ser79) Antibody (CST, cat no: 3661S) • Acetyl-CoA Carboxylase Antibody (CST, cat no: 3662S) • AMPKα2 Antibody (CST, cat no: 2757S) • AMPKβ1 antibody (CST, cat no: 12063) • AMPKβ2 Antibody (CST, CST, cat no: 4148S) • AMPKγ3 Antibody (CST, cat no: 2550S). […]
(§2) After differentiation of cells (e.g., HSKM, C2C12, L6) for 5 days, medium was changed to DHEM without FBS and glucose for starving cells for 2 hours. […] The resultant reaction mixture was then assayed and semi-quantitative histogram analysis of Western Blotting (signal value) was used to determine results.

[2] = system: high fat diet mice; details: for % Body (percentage change in body weight): up to day 36
[3] = system: HCM cells; experiment: CyQUANT Cytotoxicity Assay (G6PD assay), HCM; details: treated 2 hours
[4] = system: human skeletal muscle cells (HSKM cells); experiment: Glucose uptake assay, human skeletal muscle cells; format: cell-based
Experimental: FIGS. 1-4 show results for cells treated with differing doses of representative compounds of Structure (I) (i.e., compound I-11 in FIG. 1 and compound I-7 in FIG. 2) as well reference compounds (i.e., PF-06409577 in FIG. 3 and MK-8722 in FIG. 4). […] Cells were starved for 3 hours in high glucose DMEM without FBS, then treated with indicated compounds in DMEM without FBS/glucose for 1 hour, and glucose uptake was detected using an uptake glucose kit (Promega). The bars show (from left to right) concentrations of 100 μM, 33 μM, 11 μM, 3.7 μM, 1.23 μM, 0.41 μM, 0.14 μM, 0.045 μM, 0.015 μM, 0.005 μM, 0 μM, and insulin.
Human skeletal myoblasts were obtained (Thermofisher; BYU) and cultured in DMEM/F12 medium with 10% FBS. For differentiation, 2% horse serum low glucose DMEM medium was employed for 72 hours. Human cardiomyocytes cells (HCM cells; Promocell) were cultured in myocyte growth medium (Promocell). Human preadipocyte HWP-c cells (Promocell) were obtained from upper arm of diabetic II donor. Human preadipocyte HWP-c cells (Promocell) were obtained from abdomen of diabetic II donor. For differentiating human preadipocytes, cells were cultured in preadipocyte growth medium to total confluency stage. The growth medium was replaced with preadipocyte differentiation medium for 72 hours, then changed to PromoCell adipocyte nutrition medium to complete the differentiation process. THLE-2 cells were cultured in BEGM from Lonza/Clonetics Corporation, Walkersville, MD 21793 (BEGM Bullet Kit; CC3170). HepG2, L6 and C2Cl2 cells were cultured in EMEM medium.
After differentiation myoblasts, preadipocyte cells were starved by removing the medium and adding 100 μL DMEM without serum. The medium was then replaced with 100 μL DMEM±1 μM insulin at indicated concentration of representative compounds without serum or glucose. The cells were then incubated for 1 hour at 37° C. in 5% CO2. The cells were then removed from the medium and 50 μL of 0.1 mM 2DG in PBS was added. Cells were incubated for 30 minutes at 25° C. 25 μL of Stop Buffer was added and samples were mixed. 25 μL of Neutralization Buffer was then added and mixed. 100 μL of 2DG6P Detection Reagent was then added and mixed. Samples were then incubated for 1 hour at 25° C. Luminescence was then recorded with 0.3-1 second integration on a luminometer.

[5] = system: AMPK signal pathway in L6 cells; experiment: Western blot assay, L6 cells
Experimental: as §1, §2

[6] = Plasma and tissue concentration in high fat diet mice, day 36; format: in vivo, mice (Mus musculus—C57BL-6); details: for concentration at 1 h / concentration at 3 h / concentration at 4 h: male, C57BL-6, mouse, oral
Experimental: Doses were 30 and 50 mg/kg and administered orally (p.o.) once a day (QD) for 36 days. Dose volume was 10 mL/kg, which was administered to male, 18-22-week-old mice (Mus musculus—C57BL-6) with body weight between 18-19.4 g each. Mice were grouped into 3 groups of 10. The diet for induced obesity mice were selected as a test system
Plasma lipid profile: On day 34 total cholesterol levels, triglyceride, HDL, and LDL levels were detected. Plasma insulin (fasting) and plasma NEFA (fasting) was tested on day 36. Cumulative food consumption was measured daily starting from day 1 onwards up to end of the study period. Liver, heart, jejunum, and brain tissue were collected for additional testing.

For `O=c1[nH]c(-c2c[nH]c3cc(F)c(-c4ccc(C5(O)CCC5)cc4)c(F)c23)no1` [Compound I-11, 3-(4,6-difluoro-5-(4-(1-hydroxycyclobutyl)phenyl)-1H-indol-3-yl)-1,2,4-oxadiazol-5(4H)-one], the pAMPK/pACC/AMPKα2β1β2γ3 expression [1] was “also induce”, the “% fat mass” value ([2]; 30 mg/kg p.o. QD, Day 14) was 53.75 ± 0.88% and the “area (cm^2; DEXA scan)” value ([2]; 30 mg/kg p.o. QD, Day 14) was 13.26 ± 0.24 cm^2. The “bone mineral content (BMC)” value ([2]; 30 mg/kg p.o. QD, Day 14) was 1.04 ± 0.02, the “bone mineral density (BMD)” value ([2]; 30 mg/kg p.o. QD, Day 14) was 0.08 ± 0.00 and the “fat mass (gm)” value ([2]; 30 mg/kg p.o. QD, Day 14) was 27.97 ± 0.67 gm. For the same compound, the “lean+bone mineral content (BMC-gm)” value ([2]; 30 mg/kg p.o. QD, Day 14) was 24.11 ± 0.71 gm, the “total mass (gm)” value ([2]; 30 mg/kg p.o. QD, Day 14) was 52.05 ± 1.04 gm and the “% fat mass” value ([2]; 30 mg/kg p.o. QD, Day −3) was 46.39 ± 0.83%. The “area (cm^2; DEXA scan)” value ([2]; 30 mg/kg p.o. QD, Day −3) was 12.61 ± 0.23 cm^2, the “bone mineral content (BMC)” value ([2]; 30 mg/kg p.o. QD, Day −3) was 1.01 ± 0.01 and the “bone mineral density (BMD)” value ([2]; 30 mg/kg p.o. QD, Day −3) was 0.08 ± 0.00. The “fat mass (gm)” value ([2]; 30 mg/kg p.o. QD, Day −3) was 23.20 ± 0.60 gm, the “lean+bone mineral content (BMC-gm)” value ([2]; 30 mg/kg p.o. QD, Day −3) was 26.78 ± 0.50 gm and the “total mass (gm)” value ([2]; 30 mg/kg p.o. QD, Day −3) was 49.96 ± 0.75 gm. The “% Body (percentage change in body weight)” value ([2]; 30 mg/kg p.o. QD) was 1.40 ± 0.21%, the “% fat mass” value ([2]; 50 mg/kg p.o. QD, Day 14) was 50.05 ± 1.02% and the “area (cm^2; DEXA scan)” value ([2]; 50 mg/kg p.o. QD, Day 14) was 12.93 ± 0.23 cm^2. The “bone mineral content (BMC)” value ([2]; 50 mg/kg p.o. QD, Day 14) was 1.04 ± 0.02, the “bone mineral density (BMD)” value ([2]; 50 mg/kg p.o. QD, Day 14) was 0.08 ± 0.00 and the “fat mass (gm)” value ([2]; 50 mg/kg p.o. QD, Day 14) was 25.95 ± 0.84 gm. For the same compound, the “lean+bone mineral content (BMC-gm)” value ([2]; 50 mg/kg p.o. QD, Day 14) was 25.83 ± 0.49 gm, the “total mass (gm)” value ([2]; 50 mg/kg p.o. QD, Day 14) was 51.78 ± 0.85 gm and the “% fat mass” value ([2]; 50 mg/kg p.o. QD, Day −3) was 46.37 ± 2.15%. For the same compound, the “area (cm^2; DEXA scan)” value ([2]; 50 mg/kg p.o. QD, Day −3) was 12.56 ± 0.30 cm^2, the “bone mineral content (BMC)” value ([2]; 50 mg/kg p.o. QD, Day −3) was 1.01 ± 0.02 and the “bone mineral density (BMD)” value ([2]; 50 mg/kg p.o. QD, Day −3) was 0.08 ± 0.00. The “fat mass (gm)” value ([2]; 50 mg/kg p.o. QD, Day −3) was 23.44 ± 1.29 gm, the “lean+bone mineral content (BMC-gm)” value ([2]; 50 mg/kg p.o. QD, Day −3) was 26.97 ± 1.03 gm and the “total mass (gm)” value ([2]; 50 mg/kg p.o. QD, Day −3) was 50.40 ± 0.80 gm. For the same compound, the “% Body (percentage change in body weight)” value ([2]; 50 mg/kg p.o. QD) was −0.34 ± 0.73%, the “clinical signs, morbidity, mortality” value ([2]; 30 and 50 mg/kg p.o. QD for 36 days) was “no observations of clinical signs or morbidity, and no mortality” and the “toxicity compared to reference compounds MK-8722 and PF-06409577 (G6PD release)” value [3] was “less toxicity”. The “glucose uptake compared with reference compounds, based on RLU values” [4] was “much more glucose uptake compared with reference compounds”, the “dose dependence of glucose uptake (printed: activation of insulin / AMPK activation)” value ([4]; 100 μM to 0.005 μM, 1 hour) was “dose-dependent manner; also recorded: dose dependence” and the glucose uptake ([4]; starved, treated 1 hour) was “induced glucose uptake; also recorded: increased glucose uptake”. The pAMPK/pACC/AMPKα2γ3 expression [5] was “can also induce”, the “Brain (ng/mL)” value ([6]; 30 mg/kg, 1 hr) was “BLQ” and the “Brain (ng/mL)” value ([6]; 30 mg/kg, 3 hr) was “BLQ”. The “Skeletal muscle (ng/mL)” value ([6]; 30 mg/kg, 3 hr) was “BLQ”, the “Brain (ng/mL)” value ([6]; 50 mg/kg, 1 hr) was “BLQ” and the “Skeletal muscle (ng/mL)” value ([6]; 50 mg/kg, 1 hr) was “BLQ”. For the same compound, the “Brain (ng/mL)” value ([6]; 50 mg/kg, 3 hr) was “BLQ”, the “Skeletal muscle (ng/mL)” value ([6]; 50 mg/kg, 3 hr) was “BLQ” and the “Brain (ng/mL)” value ([6]; 50 mg/kg, 4 hr) was “BLQ”. For the same compound, the “Skeletal muscle (ng/mL)” value ([6]; 50 mg/kg, 4 hr) was “BLQ”, the concentration at 1 h ([6]; adipose tissue (abdominal fat), 30 mg/kg, 1 hr, read-out: Adipose tissue (abdominal fat)) was 57 ng/mL and the concentration at 3 h ([6]; adipose tissue (abdominal fat), 30 mg/kg, 3 hr, read-out: Adipose tissue (abdominal fat)) was 23 ng/mL. For the same compound, the concentration at 4 h ([6]; adipose tissue (abdominal fat), 30 mg/kg, 4 hr, read-out: Adipose tissue (abdominal fat)) was 38 ng/mL, the concentration at 1 h ([6]; adipose tissue (abdominal fat), 50 mg/kg, 1 hr, read-out: Adipose tissue (abdominal fat)) was 2000 ng/mL and the concentration at 3 h ([6]; adipose tissue (abdominal fat), 50 mg/kg, 3 hr, read-out: Adipose tissue (abdominal fat)) was 1590 ng/mL. For the same compound, the concentration at 4 h ([6]; adipose tissue (abdominal fat), 50 mg/kg, 4 hr, read-out: Adipose tissue (abdominal fat)) was 1760 ng/mL, the concentration at 4 h ([6]; brain, 30 mg/kg, 4 hr, read-out: Brain) was 6 ng/mL and the concentration at 1 h ([6]; heart, 30 mg/kg, 1 hr, read-out: Heart) was 103 ng/mL. It also gave a concentration at 3 h ([6]; heart, 30 mg/kg, 3 hr, read-out: Heart) of 32 ng/mL, a concentration at 4 h ([6]; heart, 30 mg/kg, 4 hr, read-out: Heart) of 31 ng/mL and a concentration at 1 h ([6]; heart, 50 mg/kg, 1 hr, read-out: Heart) of 52 ng/mL. It also gave a concentration at 3 h ([6]; heart, 50 mg/kg, 3 hr, read-out: Heart) of 36 ng/mL, a concentration at 4 h ([6]; heart, 50 mg/kg, 4 hr, read-out: Heart) of 102 ng/mL and a concentration at 1 h ([6]; jejunum, 30 mg/kg, 1 hr, read-out: Jejunum) of 124000 ng/mL. The concentration at 3 h ([6]; jejunum, 30 mg/kg, 3 hr, read-out: Jejunum) was 35 ng/mL, the concentration at 4 h ([6]; jejunum, 30 mg/kg, 4 hr, read-out: Jejunum) was 27 ng/mL and the concentration at 1 h ([6]; jejunum, 50 mg/kg, 1 hr, read-out: Jejunum) was 4390 ng/mL. The concentration at 3 h ([6]; jejunum, 50 mg/kg, 3 hr, read-out: Jejunum) was 165 ng/mL, the concentration at 4 h ([6]; jejunum, 50 mg/kg, 4 hr, read-out: Jejunum) was 55 ng/mL and the concentration at 1 h ([6]; liver, 30 mg/kg, 1 hr, read-out: Liver) was 118 ng/mL. For the same compound, the concentration at 3 h ([6]; liver, 30 mg/kg, 3 hr, read-out: Liver) was 74 ng/mL, the concentration at 4 h ([6]; liver, 30 mg/kg, 4 hr, read-out: Liver) was 106 ng/mL and the concentration at 1 h ([6]; liver, 50 mg/kg, 1 hr, read-out: Liver) was 80 ng/mL. It also gave a concentration at 3 h ([6]; liver, 50 mg/kg, 3 hr, read-out: Liver) of 64 ng/mL, a concentration at 4 h ([6]; liver, 50 mg/kg, 4 hr, read-out: Liver) of 71 ng/mL and a concentration at 1 h ([6]; plasma, 30 mg/kg, 1 hr, read-out: Plasma) of 627 ng/mL. It also gave a concentration at 3 h ([6]; plasma, 30 mg/kg, 3 hr, read-out: Plasma) of 147 ng/mL, a concentration at 4 h ([6]; plasma, 30 mg/kg, 4 hr, read-out: Plasma) of 121 ng/mL and a concentration at 1 h ([6]; plasma, 50 mg/kg, 1 hr, read-out: Plasma) of 501 ng/mL. For the same compound, the concentration at 3 h ([6]; plasma, 50 mg/kg, 3 hr, read-out: Plasma) was 199 ng/mL, the concentration at 4 h ([6]; plasma, 50 mg/kg, 4 hr, read-out: Plasma) was 112 ng/mL and the concentration at 1 h ([6]; skeletal muscle, 30 mg/kg, 1 hr, read-out: Skeletal muscle) was 287 ng/mL. It also gave a concentration at 4 h ([6]; skeletal muscle, 30 mg/kg, 4 hr, read-out: Skeletal muscle) of 56 ng/mL.
